Source: ChEMBL document CHEMBL4811232 (J Med Chem, 2021)

Assays:
hERG (KCNH2) = hERG (KCNH2) (Homo sapiens, UniProt Q12809); assay: in vitro; conditions: CHO cells expressing human ERG
Description: Inhibition of human ERG expressed in CHO cells at 5 uM maintained at -80 mV membrane potential by automated patch-clamp assay relative to control

Beta-secretase 1 [1] = target: T1, Beta-secretase 1 (Homo sapiens, UniProt P56817)
Description: Inhibition of BACE1 in human SH-SY5Y cells expressing wild type betaAPP assessed as reduction in amyloidbeta (1 to 40 residues) level incubated for 24 hrs by HTRF assay

Cytochrome P450 2D6 = Cytochrome P450 2D6 (Homo sapiens, UniProt P10635)
Description: Inhibition of CYP2D6 in human liver microsomes using dextromethorphan as substrate incubated for 15 mins in presence of NADPH by LC/MS/MS analysis

in vitro [2] = conditions: human, pooled liver microsomes
Description: Metabolic stability in human pooled liver microsomes assessed as parent compound remaining at 0.1 uM measured after 30 mins in presence of NADPH by LC-MS/MS analysis

in vitro [3] = conditions: Sprague-Dawley, rat, liver microsomes
Description: Metabolic stability in Sprague-Dawley rat liver microsomes assessed as parent compound remaining at 0.1 uM measured after 30 mins in presence of NADPH by LC-MS/MS analysis

Beta-secretase 1 [4] = target: T1, Beta-secretase 1; remark: listed apart in the source
MDR1 (ABCB1, P-gp) = MDR1 (ABCB1, P-gp) (Homo sapiens, UniProt P08183); assay: in vitro; conditions: MDCK-MDR1
Description: Substrate activity at human MDR1 expressed in MDCK cells assessed as efflux ratio

in vitro [5] = conditions: dog, MDCK
Description: Apparent permeability in MDCK cells

[6] = human, microsomes, 1 h, 50 µM
Description: Drug metabolism in human liver microsomes assessed as NADPH-independent covalent bond binding assessed per mg protein at 50 umol/L incubated for 1 hr in presence of NADPH by liquid scintillation counter analysis

[7] = human, microsomes, 1 h, 50 µM; remark: listed apart in the source
Description: Drug metabolism in human liver microsomes assessed as total covalent bond binding assessed per mg protein at 50 umol/L incubated for 1 hr in presence of NADPH by liquid scintillation counter analysis

[8] = human, microsomes, 1 h, 10 µM
Description: Drug metabolism in human liver microsomes assessed as NADPH-dependent covalent bond binding assessed per mg protein at 10 umol/L incubated for 1 hr in presence of NADPH by liquid scintillation counter analysis

[9] = human, microsomes, 1 h, 10 µM; remark: listed apart in the source
Description: Drug metabolism in human liver microsomes assessed as total covalent bond binding assessed per mg protein at 10 umol/L incubated for 1 hr in presence of NADPH by liquid scintillation counter analysis

[10] = human, microsomes, 1 h, 10 µM; remark: listed apart in the source
Description: Drug metabolism in human liver microsomes assessed as NADPH-independent covalent bond binding assessed per mg protein at 10 umol/L incubated for 1 hr in presence of NADPH by liquid scintillation counter analysis

[11] = human, microsomes, 1 h, 50 µM; remark: listed apart in the source
Description: Drug metabolism in human liver microsomes assessed as NADPH-dependent covalent bond binding at 50 umol/L incubated for 1 hr in presence of NADPH by liquid scintillation counter analysis

Sequence of Cytochrome P450 2D6 (P10635 whole entry): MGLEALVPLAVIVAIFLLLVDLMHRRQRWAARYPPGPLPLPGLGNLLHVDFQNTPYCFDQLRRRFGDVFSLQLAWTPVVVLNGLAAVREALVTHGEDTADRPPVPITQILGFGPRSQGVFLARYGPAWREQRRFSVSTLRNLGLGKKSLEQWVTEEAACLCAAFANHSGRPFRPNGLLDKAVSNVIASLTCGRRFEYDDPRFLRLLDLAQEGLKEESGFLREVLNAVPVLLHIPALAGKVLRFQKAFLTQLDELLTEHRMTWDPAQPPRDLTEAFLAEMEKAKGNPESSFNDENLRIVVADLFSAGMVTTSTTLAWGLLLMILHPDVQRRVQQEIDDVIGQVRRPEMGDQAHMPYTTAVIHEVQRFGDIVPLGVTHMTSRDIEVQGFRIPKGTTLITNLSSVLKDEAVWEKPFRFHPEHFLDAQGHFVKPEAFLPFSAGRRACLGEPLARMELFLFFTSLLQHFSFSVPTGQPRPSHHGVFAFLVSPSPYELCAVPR
Sequence of MDR1 (ABCB1, P-gp) (P08183 whole entry): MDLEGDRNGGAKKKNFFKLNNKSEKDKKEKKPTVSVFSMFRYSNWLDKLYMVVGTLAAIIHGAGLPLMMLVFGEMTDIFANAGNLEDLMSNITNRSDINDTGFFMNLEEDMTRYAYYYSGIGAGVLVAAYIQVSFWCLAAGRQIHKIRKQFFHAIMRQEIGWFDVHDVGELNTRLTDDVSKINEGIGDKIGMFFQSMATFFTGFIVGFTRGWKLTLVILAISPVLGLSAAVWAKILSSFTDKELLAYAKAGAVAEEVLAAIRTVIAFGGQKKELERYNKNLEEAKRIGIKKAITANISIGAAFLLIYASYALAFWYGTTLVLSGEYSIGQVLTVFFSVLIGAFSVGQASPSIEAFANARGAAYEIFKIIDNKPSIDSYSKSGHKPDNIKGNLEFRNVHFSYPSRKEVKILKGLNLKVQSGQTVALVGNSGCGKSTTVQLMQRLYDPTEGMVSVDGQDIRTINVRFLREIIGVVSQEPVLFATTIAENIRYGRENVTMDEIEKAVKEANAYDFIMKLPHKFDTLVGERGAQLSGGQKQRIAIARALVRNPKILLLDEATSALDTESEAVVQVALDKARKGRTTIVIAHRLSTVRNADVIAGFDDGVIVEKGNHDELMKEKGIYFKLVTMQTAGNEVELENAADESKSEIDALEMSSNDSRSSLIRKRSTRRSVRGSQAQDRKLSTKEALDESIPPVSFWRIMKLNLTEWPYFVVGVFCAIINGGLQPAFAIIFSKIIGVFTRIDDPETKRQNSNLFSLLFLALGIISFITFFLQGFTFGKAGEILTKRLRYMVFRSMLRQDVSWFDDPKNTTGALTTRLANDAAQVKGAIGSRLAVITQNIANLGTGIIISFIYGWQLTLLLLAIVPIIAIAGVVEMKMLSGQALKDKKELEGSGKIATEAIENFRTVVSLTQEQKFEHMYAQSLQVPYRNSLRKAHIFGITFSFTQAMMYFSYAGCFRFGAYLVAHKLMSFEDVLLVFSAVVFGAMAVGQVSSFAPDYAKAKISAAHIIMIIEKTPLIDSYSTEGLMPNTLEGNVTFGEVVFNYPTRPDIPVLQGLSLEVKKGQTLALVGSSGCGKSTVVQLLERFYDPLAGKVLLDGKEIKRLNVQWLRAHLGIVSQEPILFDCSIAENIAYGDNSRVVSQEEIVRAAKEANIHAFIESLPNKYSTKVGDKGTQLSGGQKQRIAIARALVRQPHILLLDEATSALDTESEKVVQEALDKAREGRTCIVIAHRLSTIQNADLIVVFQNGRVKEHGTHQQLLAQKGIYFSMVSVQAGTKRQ
Sequence of hERG (KCNH2) (Q12809 whole entry): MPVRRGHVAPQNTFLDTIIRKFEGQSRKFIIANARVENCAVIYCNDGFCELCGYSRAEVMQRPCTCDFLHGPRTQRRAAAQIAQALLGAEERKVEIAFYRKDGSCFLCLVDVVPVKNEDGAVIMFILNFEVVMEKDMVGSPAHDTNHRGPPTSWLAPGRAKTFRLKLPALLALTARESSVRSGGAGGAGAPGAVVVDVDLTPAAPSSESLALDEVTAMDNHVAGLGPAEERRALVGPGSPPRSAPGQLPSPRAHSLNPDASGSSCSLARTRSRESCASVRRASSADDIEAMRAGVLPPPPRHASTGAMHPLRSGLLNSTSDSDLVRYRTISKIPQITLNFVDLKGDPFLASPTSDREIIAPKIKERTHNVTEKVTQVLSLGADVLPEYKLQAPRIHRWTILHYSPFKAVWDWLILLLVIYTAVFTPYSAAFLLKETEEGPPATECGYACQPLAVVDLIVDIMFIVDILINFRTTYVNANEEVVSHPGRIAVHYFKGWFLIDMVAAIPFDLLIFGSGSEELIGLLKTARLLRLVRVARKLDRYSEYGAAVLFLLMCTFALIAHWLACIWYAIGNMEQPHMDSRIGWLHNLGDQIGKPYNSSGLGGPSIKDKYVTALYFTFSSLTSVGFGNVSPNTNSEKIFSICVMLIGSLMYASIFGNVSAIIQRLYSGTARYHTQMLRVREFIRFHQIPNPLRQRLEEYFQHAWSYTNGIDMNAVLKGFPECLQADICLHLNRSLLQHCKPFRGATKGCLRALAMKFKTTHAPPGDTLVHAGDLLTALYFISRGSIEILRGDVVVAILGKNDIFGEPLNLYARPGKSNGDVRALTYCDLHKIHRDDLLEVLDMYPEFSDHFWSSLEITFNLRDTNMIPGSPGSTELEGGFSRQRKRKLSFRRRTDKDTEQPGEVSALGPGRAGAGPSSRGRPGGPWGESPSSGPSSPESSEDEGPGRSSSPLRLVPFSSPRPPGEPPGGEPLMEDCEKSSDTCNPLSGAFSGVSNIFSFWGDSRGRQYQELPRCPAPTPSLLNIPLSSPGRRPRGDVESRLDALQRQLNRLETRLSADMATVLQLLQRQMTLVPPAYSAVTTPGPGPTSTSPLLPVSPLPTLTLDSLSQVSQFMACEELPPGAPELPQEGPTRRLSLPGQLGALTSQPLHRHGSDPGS
T1 sequence (P56817 whole entry): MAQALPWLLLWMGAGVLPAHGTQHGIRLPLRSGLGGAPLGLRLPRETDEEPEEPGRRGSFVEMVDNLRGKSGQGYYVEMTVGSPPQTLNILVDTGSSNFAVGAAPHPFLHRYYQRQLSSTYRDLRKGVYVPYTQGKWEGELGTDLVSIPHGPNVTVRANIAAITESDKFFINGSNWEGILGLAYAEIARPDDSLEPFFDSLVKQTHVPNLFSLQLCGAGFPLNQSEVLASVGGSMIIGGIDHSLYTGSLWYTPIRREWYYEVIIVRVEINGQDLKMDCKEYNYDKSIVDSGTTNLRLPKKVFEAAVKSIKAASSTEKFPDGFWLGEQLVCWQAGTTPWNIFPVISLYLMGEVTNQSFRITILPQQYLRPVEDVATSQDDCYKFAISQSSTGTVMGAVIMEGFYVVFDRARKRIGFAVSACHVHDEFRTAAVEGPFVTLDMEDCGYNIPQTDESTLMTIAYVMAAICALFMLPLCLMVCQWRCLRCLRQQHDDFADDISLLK
Description for physchem: Dissociation constant, pKa of the compound by capillary electrophoresis method

Structure (SMILES)	inhibition at 5 µM (hERG (KCNH2))	IC50 (Beta-secretase 1 [1])	IC50 (Cytochrome P450 2D6)	remaining at 0.5 h, 0.1 µM (in vitro [2])	remaining at 0.5 h, 0.1 µM (in vitro [3])	IC50 (Beta-secretase 1 [4])	efflux ratio (MDR1 (ABCB1, P-gp))	Papp (in vitro [5])	pKa (physchem)	Drug metabolism [6]	Drug metabolism [7]	Drug metabolism [8]	Drug metabolism [9]	Drug metabolism [10]	Drug metabolism [11]
C[C@@]1(c2cc(NC(=O)c3ccc(Cl)cn3)ccc2F)C=CSC(N)=N1	80%	5.5 nM	< 1000 nM	78%	76%	9.6 nM									
CC1(c2cccc(C(=O)Nc3ccc(Cl)cn3)c2)CCSC(N)=N1 (stereo not drawn)		170 nM				1450 nM									
C[C@@]1(c2cc(NC(=O)c3ncc(C#N)cc3Cl)ccc2F)C=CSC(N)=N1	48%	1.6 nM	> 20000 nM	85%	87%	20 nM	20								
C[C@@]1(c2cc(NC(=O)c3ccc(F)cn3)ccc2F)C=CSC(N)=N1	67%	4.2 nM	11000 nM	97%	60%	39 nM	2								
COc1cnc(C(=O)Nc2ccc(F)c([C@]3(C)C=CSC(N)=N3)c2)cn1	29%	4.4 nM	< 1000 nM	27%	88%	21 nM	1.4								
C=C1C[C@@](C)(c2cc(NC(=O)c3ccc(C#N)cn3)ccc2F)N=C(N)S1	78%	1.1 nM		65%	8%	9.1 nM	5.3	38 ×10⁻⁶ cm/s	7.8						
C[C@@]1(c2cc(NC(=O)c3ccc(C#N)cn3)ccc2F)CCSC(N)=N1	91%			104%	66%			12 ×10⁻⁶ cm/s	9						
N#Cc1ccc(C(=O)Nc2ccc(F)c([C@]3(CF)CCSC(N)=N3)c2)nc1	90%	0.62 nM		86%	64%	16 nM	22	22 ×10⁻⁶ cm/s	7.6						
C[C@@]1(c2cc(C(=O)Nc3ccc(Cl)cn3)ccc2F)CCSC(N)=N1		0.84 nM				6.7 nM									
CCc1ccc(CCOc2ccc(CC3SC(=O)NC3=O)cc2)nc1 (stereo not drawn) [PIOGLITAZONE]										12 pmol	3458 pmol	594 pmol	599 pmol	4 pmol	3446 pmol
